Laboratory results reported in patent publication US8173628B2, “Steroidal antiestrogens and antiandrogens and uses thereof” (Northeastern University, priority 2000, dated 2012).

Tests used:
[1] = tested on: MCF-7 cells; assay: proliferation assay of MCF-7 cells; format: cell-based; settings: for effect on the proliferative response to estradiol: ligand added in the presence of 1 nM estradiol; for ability of the ligand to stimulate the proliferation of MCF-7 cells: ligand alone
From the text: Trifluoromethyl group was introduced onto phenylvinyl estradiol either at the ortho, meta, or para positions. These compounds were examined for their ability to stimulate or inhibit estrogen responses in two assay systems. […] The meta- and para-isomers gave substantially different profiles. […] Therefore, the position of the trifluoromethyl group exerted a significant effect on the efficacy of the ligand.

[2] = tested on: immature female rat; assay: immature female rat uterotrophic growth assay, estrogenic assay; format: in vivo
Experimental: (§1) These trifluoromethyl substituted compounds were also studied with an immature female rat uterotrophic growth assay; the results are shown in FIGS. 12, 13, and 14. […] Therefore, the agonist responses observed in the in vitro cell proliferation assay were carried over to the intact animal as well. The antiestrogen assay evaluated the ability of the isomers to block the uterotrophic effect induced by 1 nM estradiol. […] Therefore, in both estrogen responsive cells and tissues these new ligands are producing differential responses in affinity and efficacy related to the site of trifluoromethyl substitution on the phenyl ring.

[3] = tested on: immature female rat; assay: immature female rat uterotrophic growth assay, antiestrogen assay; format: in vivo; settings: 1 nM estradiol
Experimental: as §1

SMILES	effect on the proliferative response to estradiol [1]	ability of the ligand to stimulate the proliferation of MCF-7 cells [1]	estrogenic effect (uterotrophic growth) ([2]; 3 nM level)	estrogenic effect (uterotrophic growth) ([2]; 10 and 100 nM)	ability to block the uterotrophic effect induced by estradiol ([3]; isomer at 10 and 100 nM)	ability to block the uterotrophic effect induced by estradiol ([3]; isomer at 100 nM)
CC12CCC3c4ccc(O)cc4CCC3C1CCC2(O)C=Cc1ccccc1C(F)(F)F (stereo not drawn) [Compound 4a, 17α-20E-21-(2-Trifluoromethylphenyl)-19-norpregna-1,3,5(10),20-tetraene-3,17β-diol]	neither an enhancement nor a diminution of the proliferative response	full agonist response comparable to that of estradiol	effect comparable to estradiol	substantial estrogenic effects	enhancement of the estrogenic response	–
CC12CCC3c4ccc(O)cc4CCC3C1CCC2(O)C=Cc1cccc(C(F)(F)F)c1 (stereo not drawn) [Compound 5a, 17α-20E-21-(3-Trifluoromethylphenyl)-19-norpregna-1,3,5(10),20-tetraene-3,17β-diol]	antagonized the effects of estradiol at the same doses	weak proliferative effect at doses greater than 1 nM	–	little or no estrogenic effects	no significant effect on the estradiol response	–
CC12CCC3c4ccc(O)cc4CCC3C1CCC2(O)C=Cc1ccc(C(F)(F)F)cc1 (stereo not drawn) [Compound 6a, 17α-20E-21-(4-Trifluoromethylphenyl)-19-norpregna-1,3,5(10),20-tetraene-3,17β-diol]	decreases in the estradiol effects were observed below 1 nM	did not elicit a proliferative response until a 10 nM dose was employed	–	little or no estrogenic effects	–	reduced the estrogenic response
